Reference: US12077503B2, “Substituted cyclic amides and their use as herbicides” (FMC CORPORATION, priority 2015, dated 2024)

Key:
Type in all cases: in vivo
[1] = tested on: barnyardgrass (Echinochloa crus-galli); assay: Test C flooded paddy test; conditions: Flood; for Plant response rating (scale of 0 to 100), Barnyardgrass: 0 is no effect, 100 is complete control
Method in brief: (§1)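 Visual 0–100 injury rating versus controls (0 = no effect, 100 = complete control) at 13 to 15 d. 2-leaf-stage plants; pots flooded 3 cm over soil surface, test compound added to paddy water; greenhouse.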

[2] = tested on: ducksalad (Heteranthera limosa); assay: Test C flooded paddy test; conditions: Flood; for Plant response rating (scale of 0 to 100), Ducksalad: 0 is no effect, 100 is complete control
Method in brief: as §1

[3] = tested on: sedge, umbrella (small-flower umbrella sedge, Cyperus difformis); assay: Test C flooded paddy test; conditions: Flood; for Plant response rating (scale of 0 to 100), Sedge, Umbrella: 0 is no effect, 100 is complete control
Method in brief: as §1

[4] = tested on: barnyardgrass (Echinochloa crus-galli); assay: Test F flooded paddy test; set-up: key: 0 = no effect, 100 = complete control; conditions: Flood
Source text: (§2) Plant species in the flooded paddy test consisted of one stand of 9 or 10 water seeded rice seedlings (Rice, W. S. Jap, Oryza sativa cv. ‘Japonica—M202’ or Rice, W. S. Ind, ‘Indica’), and two stands of 3 or 4 transplanted rice seedlings (Oryza sativa cv. ‘Japonica—M202’), Monochoria (Monochoria vaginalis), sedge, umbrella (small-flower umbrella sedge, Cyperus difformis), hardstem bulrush (Scirpus juncoides), redstem (purple redstem, Ammannia coccinea), rice flatsedge (Cyperus iria), bearded sprangletop (Leptochloa fascicularis), barnyardgrass (Echinochloa crus-galli), waterplantain (common waterplantain, Alisma plantago-aquatica), and late watergrass (Echinochloa oryzicola) grown to the 2 to 2.5 leaf stage for testing. Potted plants were grown in a greenhouse with day/night temperature settings of 30/27° C., and supplemental balanced lighting was provided to maintain a 16-hour photoperiod. At time of treatment, test pots were flooded to 3 cm above the soil surface, treated by application of test compounds directly to the paddy water, and then maintained at that water depth for the duration of the test. Effects of treatments on rice and weeds were visually evaluated by comparison to untreated controls after 21 d. Plant response ratings, summarized in Table F, are based on a scale of 0 to 100 where 0 is no effect and 100 is complete control. A dash (-) response means no test result.

[5] = tested on: transplanted rice seedlings (Oryza sativa cv. ‘Japonica—M202’); assay: Test F flooded paddy test; set-up: key: 0 = no effect, 100 = complete control; conditions: Flood
Source text: as §2

[6] = tested on: sedge, umbrella (small-flower umbrella sedge, Cyperus difformis); assay: Test F flooded paddy test; set-up: key: 0 = no effect, 100 = complete control; conditions: Flood
Source text: as §2

[7] = 16 g ai/ha, scale 0 to 100 (0 no effect, 100 complete control), 13 to 15 d

SMILES | Plant response rating (scale of 0 to 100), Barnyardgrass ([1]; 31 g ai/ha) | Plant response rating (scale of 0 to 100), Barnyardgrass ([1]; 62 g ai/ha) | Plant response rating (scale of 0 to 100), Barnyardgrass ([1]; 125 g ai/ha) | Plant response rating (scale of 0 to 100), Ducksalad ([2]; 31 g ai/ha) | Plant response rating (scale of 0 to 100), Ducksalad ([2]; 62 g ai/ha) | Plant response rating (scale of 0 to 100), Ducksalad ([2]; 125 g ai/ha) | Plant response rating (scale of 0 to 100), Sedge, Umbrella ([3]; 31 g ai/ha) | Plant response rating (scale of 0 to 100), Sedge, Umbrella ([3]; 62 g ai/ha) | Plant response rating (scale of 0 to 100), Sedge, Umbrella ([3]; 125 g ai/ha) | Plant response rating: Barnyardgrass ([4]; 32 g ai/ha) | Plant response rating: Barnyardgrass ([4]; 64 g ai/ha) | Plant response rating: Barnyardgrass ([4]; 125 g ai/ha) | Plant response rating: Barnyardgrass ([4]; 250 g ai/ha) | Plant response rating: Rice, Transplanted ([5]; 32 g ai/ha) | Plant response rating: Rice, Transplanted ([5]; 64 g ai/ha) | Plant response rating: Rice, Transplanted ([5]; 125 g ai/ha) | Plant response rating: Rice, Transplanted ([5]; 250 g ai/ha) | Plant response rating: Sedge, Umbrella ([6]; 32 g ai/ha) | Plant response rating: Sedge, Umbrella ([6]; 64 g ai/ha) | Plant response rating: Sedge, Umbrella ([6]; 125 g ai/ha) | also measured
Cc1ccc(C2CN(C)C(=O)C2C(=O)Nc2ccccc2F)cc1F (stereo not drawn) [Compound 465] | 25 | 45 | 70 | 45 | 65 | 90 | 0 | 0 | 0 | 100 | 100 | 100 | 100 | 0 | 0 | 0 | 15 | 0 | 0 | 0 | Plant response rating, Barnyardgrass [1, 7]: 0; Plant response rating, Ducksalad [2, 7]: 0; Plant response rating, Sedge, Umbrella [3, 7]: 0; Plant response rating: Sedge, Umbrella ([6]; 250 g ai/ha): 0
CN1CC(c2ccc(F)c(C(F)(F)F)c2)C(C(=O)Nc2ccccc2S(C)(=O)=O)C1=O (stereo not drawn) [Compound 612] | 0 | 0 | 0 | 0 | 0 | 0 | 0 | 0 | 0 |  |  |  |  |  |  |  |  |  |  |  | Plant response rating (scale of 0 to 100), Barnyardgrass ([1]; 250 g ai/ha): 55; Plant response rating (scale of 0 to 100), Ducksalad ([2]; 250 g ai/ha): 55; Plant response rating (scale of 0 to 100), Sedge, Umbrella ([3]; 250 g ai/ha): 0
CN1CC(c2cccc(OC(F)F)c2)C(C(=O)Nc2ccc(F)cc2F)C1=O (stereo not drawn) [Compound 617] |  |  |  |  |  |  |  |  |  | 60 | 85 | 100 | 100 | 0 | 0 | 0 | 0 | 0 | 0 | 0 | Plant response rating: Sedge, Umbrella ([6]; 250 g ai/ha): 0
